Experimental data: patent EP0389975A1, “Intranasal administration of physostigmine and arecoline” (priority 1989, dated 1990)
Where two headings read alike, the source gives them in different places.

Assays:
[1] = Pharmacokinetics of arecoline in rats after intranasal and intramuscular administration; assay type: in vivo, Male Lewis rats; settings: for Tmax / half-life / AUC / Cmax: male, Lewis, rat, plasma; for AUC / Cmax: n=3 rats
Method: (§1) The blood samples were collected into heparinized test tubes. […] Plasma was separated immediately and stored frozen.
The analytical method of arecoline in plasma was performed by gas-chromatography-mass spectrometry (GC-MS) after solvent extraction using a method similar to that described in Beil, et al., Drug Develop Res, 9, 203-212 (1986). Nicotine was used as an internal standard. In this method, 50µl of nicotine solution in chloroform (1.5 µg/ml and 50 µl of 10% triethylamine in chloroform were added to 0.5 ml cold plasma in a 5 ml test tube with a screw cap. The tubes were vortexed for 1 minute and centrifuged for 10-15 minutes. The organic layer was then removed, placed in a micro vial and sealed with perfluoroethylene tape such as Teflon®, until analysis.
GC-MS analysis was performed using an HP-1 column, (crosslinked methyl silicon, 12 m x […] x 0.33 µm film thickness). Two µl aliquots were injected onto the column in a splitless mode. Helium was used as a carrier gas. Detection was accomplished using a gas chromatograph electron impact mass selective detector set at m/z=155 and 162. The limit of arecoline detection was 15 ng/ml.

[2] = test system: normal human subjects; settings: cited from earlier work
[3] = cited from earlier work
[4] = test system: patients having Alzheimer presenile dementia; settings: cited from earlier work
[5] = In situ-in vivo nasal study: dosing in one nostril and washing out from the other; parameters: species or system rats; settings: after 15 minutes of dosing in one nostril
[6] = test system: rats; assay: Survival of rats after arecoline administration by different routes; assay type: in vivo
Method: as §1
Plasma arecoline concentrations were determined after nasal and i.m. administration of the compound. After intranasal administration, arecoline was absorbed very rapidly (tmax= 3 +/- 1.6 min), faster than after i.m. administration (tmax=13.3 +/- 6.2 min). […] It is not known why absorption after i.m. was slower. […] Bolus i.v. studies were also performed, but the rats died. […]

[7] = Pharmacokinetics of physostigmine in rats after intravenous and intranasal administration
Method: Male Lewis rats, each weighing approximately 300 grams were anesthesized with pentobarbital (50 mg/kg i.p.). The jugular vein was cannulated and attached to a syringe through a three way stopcock for blood collections. For nasal administration of physostigmine and arecoline, an incision was made in the neck of the animals and the trachea was cannulated with a polyethylene (PE) tube. A closed tube was inserted through the esophagus to the posterior part of the nasal cavity. The nasopalatine passage was closed with an adhesive agent to prevent drainage of the drug from the nasal cavity to the mouth. An aqueous solution of physostigmine hemi-sulfate (obtained from Sigma Chemical, St. Louis, Mo.) dose equivalent to 200 µg/kg of physostigmine base in a volume of 150 µl/kg was administered to the nasal cavity by means of a Hamilton syringe with PE tubing attached to the end. For arecoline hydrobromide (obtained from Sigma Chemical, St. Louis, MO.), an aqueous solution with a dose of 2 mg/kg was administered in a volume of 150 µl/kg. Blood samples (1 ml) were withdrawn through the jugular cannula and replaced with equal volume of fresh blood after each sampling as a function of time. For intravenous administration of physostigmine the same dose as nasal (200 µg/kg) in a volume of 1 ml/kg was injected through the femoral vein. For intramuscular arecoline hydrobromide, the dose was 1 mg/kg in a volume of 1 ml/kg injected into the biceps femoris. The blood samples were collected into heparinized test tubes. In the case of physostigmine the tubes also contained 50 µl of a 100 µg/ml neostigmine bromide (as a stabilizer for physostigmine). Plasma was separated immediately and stored frozen.
The analytical method for physostigmine in plasma was a modification of that described in Brodie, et al., J. Chromatogr. 415, 423-431 (1987). Plasma samples (0.5 ml) were pipetted into extraction tubes, and 0.2 ml of an aqueous solution of 3,3-bis(4- pyridylmethyl)-1-phenyl indolin-2-one as an internal standard (1.5 µg/ml), 2 ml of ethylacetate and 0.2 ml of a 3.5% sodium carbonate solution were added. The tubes were shaken mechanically for 0.5 minute and centrifuged for 5 minutes. The organic layer was then transferred to 12 X 75 mm tubes, evaporated to dryness under a steam of nitrogen, and the residue was reconstituted in 0.2 ml acetonitrile. After mechanical shaking (2 minutes), aliquots (125 µl) were analyzed by High Performance Liquid Chromatography (HPLC) using a dual detection system, where detection of physostigmine was by a fluorimetric detector and detection of the internal standard was by an ultraviolet (u.v.) detector.
Separation was achieved on a 25 cm x 4.6 mm reverse phase (Zorbax® C₈, Du Pont) column attached to a guard column with C₈ packing at ambient temperature The mobile phase contained 0.2 M ammonium acetate-acetonitrile (2:3), adjusted to pH 8.2-8.3 with triethylamine and was delivered at a flow rate of 1.5 ml/min. Detection of physostigmine was by fluorimetric detector (Spectroflow 980 Programmable Fluorescence Detector, Kratos) operated at excitation and emission wavelengths of 254 and 320 nm, respectively. Detection of the internal standard was by u.v. detector (Lambda-Max Model 481 LC Spectrophotometer, Waters instrument) set at 254 nm. […] The other components of the HPLC system were a Waters 590 Programmable HPLC pump, an autosampler (Waters WISP 710B) and a recording integrator (Hewlett-Packard Model 3393A).

[8] = im, 1 mg/kg, after i.m. administration
[9] = im, Intramuscular, 1 mg/kg Arecoline HBr
[10] = inhaled or intranasal, 2 mg/kg, after intranasal administration
[11] = inhaled or intranasal, Intranasal, 2 mg/kg Arecoline HBr
[12] = male, Lewis, rat, plasma, inhaled or intranasal, 200 ug/kg

**Q.** What does the source list for `COC(=O)C1=CCCN(C)C1` [arecoline]?
**A.** Tmax ([1]; im, 1 mg/kg, Intramuscular, 1 mg/kg Arecoline HBr, n=3 rats (Table 2)): 5.43 min; Tmax [1, 8]: 13.3 min; half-life [1, 8]: 5.4 ± 1.1 min; AUC [1, 9]: 77.7 ng·h/mL; Cmax [1, 9]: 249 ± 22 ng/mL; Tmax ([1]; inhaled or intranasal, 2 mg/kg, Intranasal, 2 mg/kg Arecoline HBr, n=3 rats (Table 2)): 3 min; Tmax [1, 10]: 3 min; half-life [1, 10]: 2 ± 0.6 min; AUC [1, 11]: 141 ng·h/mL; Cmax [1, 11]: 1750 ± 523 ng/mL; Bioavilability ([1]; ratio of AUC (nasal/intramuscular) X 100): 85%; serial learning [2]: significantly enhanced; bioavailability upon oral administration [3]: not bioavailable; picture recognition tests ([4]; 2 mg doses): trend toward improvement; picture recognition tests ([4]; intravenous administration of 4 mg): improvement; residual arecoline in the nose [5]: no residual arecoline; death of rats ([6]; bolus i.v.): the rats died; death of rats ([6]; i.m. administration): None of the rats died; death of rats ([6]; intranasal administration): None of the rats died

**Q.** For `CNC(=O)Oc1ccc2c(c1)[C@]1(C)CCN(C)[C@@H]1N2C` [physostigmine], which Tmax ([7]; Nasal, 200 µg/kg, n = 7 rats (Table 1)) is on record?
**A.** 6.5 ± 1.7 min

**Q.** What about the AUC [7, 12] of the same molecule?
**A.** 38.9 ng·h/mL

**Q.** And the Cmax [7, 12]?
**A.** 86 ± 5 ng/mL

**Q.** And the Tmax [7, 12]?
**A.** 6.5 min

**Q.** What about the half-life [7, 12] of the same molecule?
**A.** 36 ± 16 min

**Q.** And the AUC ([7]; male, Lewis, rat, plasma, iv, 200 ug/kg)?
**A.** 40.2 ng·h/mL

**Q.** What about the bioavailability ([7]; male, Lewis, rat, plasma, iv, 200 µg/kg) of the same molecule?
**A.** 97%

**Q.** And the picture recognition tests ([4]; 0.25 mg and 0.75 mg doses)?
**A.** trend toward improvement

**Q.** What about the picture recognition tests ([4]; intravenous administration of 0.375 mg) of the same molecule?
**A.** improvement
